What was measured:
[1] = biological target: T1, SIK2 (salt inducible kinase 2) (Mus musculus, UniProt Q8CFH6); experiment: in vitro kinase ELISA with GST-TORC2 peptide substrate; format: biochemical
T1 construct: GST-SIK2 expressed in COS-7 cells

[2] = biological target: T1, SIK2 (salt inducible kinase 2); experiment: as above; format: biochemical; remark: listed apart in the source

T1 sequence (Q8CFH6 whole entry): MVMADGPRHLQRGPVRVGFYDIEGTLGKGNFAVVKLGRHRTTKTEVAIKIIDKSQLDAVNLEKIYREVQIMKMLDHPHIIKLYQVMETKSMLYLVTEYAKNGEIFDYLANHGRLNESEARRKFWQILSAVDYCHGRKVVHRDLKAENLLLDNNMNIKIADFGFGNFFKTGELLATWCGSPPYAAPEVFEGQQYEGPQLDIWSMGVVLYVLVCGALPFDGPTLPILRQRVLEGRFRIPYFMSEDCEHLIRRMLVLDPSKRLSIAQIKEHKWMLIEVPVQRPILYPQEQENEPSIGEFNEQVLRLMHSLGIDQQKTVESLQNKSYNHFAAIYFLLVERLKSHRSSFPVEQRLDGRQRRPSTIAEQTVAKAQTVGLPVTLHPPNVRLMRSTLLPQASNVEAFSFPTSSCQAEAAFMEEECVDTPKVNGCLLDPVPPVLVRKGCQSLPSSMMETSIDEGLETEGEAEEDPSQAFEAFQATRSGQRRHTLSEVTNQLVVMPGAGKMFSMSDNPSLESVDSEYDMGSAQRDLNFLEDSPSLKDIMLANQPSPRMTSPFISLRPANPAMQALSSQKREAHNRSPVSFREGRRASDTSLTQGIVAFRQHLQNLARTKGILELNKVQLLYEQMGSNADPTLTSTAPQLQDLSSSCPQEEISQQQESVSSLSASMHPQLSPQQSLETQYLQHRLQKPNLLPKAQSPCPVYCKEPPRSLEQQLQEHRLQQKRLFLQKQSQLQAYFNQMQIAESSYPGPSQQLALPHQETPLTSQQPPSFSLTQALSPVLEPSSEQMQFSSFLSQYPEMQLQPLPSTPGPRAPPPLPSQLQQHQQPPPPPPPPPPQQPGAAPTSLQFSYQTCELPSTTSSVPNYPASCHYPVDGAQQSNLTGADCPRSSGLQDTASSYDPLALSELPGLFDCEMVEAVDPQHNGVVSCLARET

SMILES: COc1ccc(-c2cc(=O)c3c(O)cc(O)cc3o2)cc1O [diosmetin]
- in vitro kinase ELISA with GST-TORC2 peptide substrate [1]: 50 to 500 nM

SMILES: O=c1c(O)c(-c2ccc(O)c(O)c2)oc2cc(O)ccc12 [fisetin]
- in vitro kinase ELISA with GST-TORC2 peptide substrate [1]: ~ 50 nM

SMILES: O=c1cc(-c2ccc(O)c(O)c2)oc2cc(O)cc(O)c12 [luteolin]
- in vitro kinase ELISA with GST-TORC2 peptide substrate [1]: efficiency of SIK2-kinase inhibition in vitro by their non-methylated cognates (fisetin > luteolin > quercetin)

SMILES: O=c1c(O)c(-c2ccc(O)c(O)c2)oc2cc(O)cc(O)c12 [quercetin]
- IC50 [2]: 500 nM

— PMC3192784, “A Potent Inhibitor of SIK2, 3, 3′, 7-Trihydroxy-4′-Methoxyflavon (4′-O-Methylfisetin), Promotes Melanogenesis in B16F10 Melanoma Cells” (PLoS ONE, 2011)
